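The concentration for 50% growth inhibition is given as GI50. TGI: concentration producing complete growth inhibition.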
Legend:
Experiment in all cases: inhibition of tumour cell growth, NCI panel, 384-well format
786-0 renal = test system: 786-0 renal
A498 renal = test system: A498 renal
A549 NSCLC = test system: A549 NSCLC
ACHN renal = test system: ACHN renal
BT-549 breast = test system: BT-549 breast
CAKI-1 renal = test system: CAKI-1 renal
CCRF-CEM leukemia = test system: CCRF-CEM leukemia
COLO 205 colon = test system: COLO 205 colon
DU-145 prostate = test system: DU-145 prostate
EKVX NSCLC = test system: EKVX NSCLC
HCC-2998 colon = test system: HCC-2998 colon
HCT-116 colon = test system: HCT-116 colon
HCT-15 colon = test system: HCT-15 colon
HL-60(TB) leukemia = test system: HL-60(TB) leukemia
HOP-62 NSCLC = test system: HOP-62 NSCLC
HOP-92 NSCLC = test system: HOP-92 NSCLC
HS 578T breast = test system: HS 578T breast
HT29 colon = test system: HT29 colon
IGROV1 ovarian = test system: IGROV1 ovarian
K-562 leukemia = test system: K-562 leukemia
KM12 colon = test system: KM12 colon
LOX IMVI melanoma = test system: LOX IMVI melanoma
M14 melanoma = test system: M14 melanoma
MALME-3M melanoma = test system: MALME-3M melanoma
MCF7 breast = test system: MCF7 breast
MDA-MB-435 melanoma = test system: MDA-MB-435 melanoma
MDA-MB-468 breast = test system: MDA-MB-468 breast
MOLT-4 leukemia = test system: MOLT-4 leukemia
NCI-H226 lung = test system: NCI-H226 lung
NCI-H23 lung = test system: NCI-H23 lung
NCI-H322M lung = test system: NCI-H322M lung
NCI-H460 NSCLC = test system: NCI-H460 NSCLC
NCI-H522 lung = test system: NCI-H522 lung
NCI/ADR-RES ovarian = test system: NCI/ADR-RES ovarian
OVCAR-3 ovarian = test system: OVCAR-3 ovarian
OVCAR-4 ovarian = test system: OVCAR-4 ovarian
OVCAR-8 ovarian = test system: OVCAR-8 ovarian
PC-3 prostate = test system: PC-3 prostate
RPMI-8226 leukemia = test system: RPMI-8226 leukemia
RXF 393 renal = test system: RXF 393 renal
SF-268 CNS = test system: SF-268 CNS
SF-295 CNS = test system: SF-295 CNS
SF-539 CNS = test system: SF-539 CNS
SK-MEL-2 melanoma = test system: SK-MEL-2 melanoma
SK-MEL-28 melanoma = test system: SK-MEL-28 melanoma
SK-MEL-5 melanoma = test system: SK-MEL-5 melanoma
SK-OV-3 ovarian = test system: SK-OV-3 ovarian
SN12C renal = test system: SN12C renal
SNB-19 CNS = test system: SNB-19 CNS
SNB-75 CNS = test system: SNB-75 CNS
SW-620 colon = test system: SW-620 colon
TK-10 renal = test system: TK-10 renal
U251 glioblastoma = test system: U251 glioblastoma
UACC-257 melanoma = test system: UACC-257 melanoma
UACC-62 melanoma = test system: UACC-62 melanoma

Molecule C=C(c1ccc(N(C)C)cc1)c1ccc(N(C)C)cc1 has a GI50 ([…]-0 renal) of 2.51 µM, a TGI (786-0 renal) of 8.96 µM and a GI50 (A498 renal) of 2.1 µM. For the same molecule, the TGI (A498 renal) was 7.73 µM, the GI50 (A549 NSCLC) was 4.11 µM and the TGI (A549 NSCLC) was 28.9 µM. The GI50 (ACHN renal) was 4.16 µM, the TGI (ACHN renal) was > 100 µM and the GI50 (BT-549 breast) was 1.49 µM. For the same molecule, the TGI (BT-549 breast) was 4.15 µM, the GI50 (CAKI-1 renal) was 2.57 µM and the TGI (CAKI-1 renal) was 22.1 µM. It also gave a GI50 (CCRF-CEM leukemia) of 1.35 µM, a TGI (CCRF-CEM leukemia) of 2.68 µM and a GI50 (COLO 205 colon) of 2.78 µM. For the same molecule, the TGI (COLO 205 colon) was 7.77 µM, the GI50 (DU-145 prostate) was 2.66 µM and the TGI (DU-145 prostate) was 8.38 µM. It also gave a GI50 (EKVX NSCLC) of 3.38 µM, a TGI (EKVX NSCLC) of 15.3 µM and a GI50 (HCC-2998 colon) of 1.12 µM. The TGI (HCC-2998 colon) was 4.84 µM, the GI50 (HCT-116 colon) was 2.45 µM and the TGI (HCT-116 colon) was 13.1 µM. It also gave a GI50 (HCT-15 colon) of 0.373 µM, a TGI (HCT-15 colon) of 10.3 µM and a GI50 (HL-60(TB) leukemia) of 0.382 µM. It also gave a TGI (HL-60(TB) leukemia) of 1.87 µM, a GI50 (HOP-62 NSCLC) of 2.2 µM and a TGI (HOP-62 NSCLC) of 7.98 µM. The GI50 (HOP-92 NSCLC) was 2.45 µM, the TGI (HOP-92 NSCLC) was 8.34 µM and the GI50 (HS 578T breast) was 1.69 µM. The TGI (HS 578T breast) was 3.53 µM, the GI50 (HT29 colon) was 1.87 µM and the TGI (HT29 colon) was 4.79 µM. The GI50 (IGROV1 ovarian) was 2.36 µM, the TGI (IGROV1 ovarian) was 9.03 µM and the GI50 (K-562 leukemia) was 1.91 µM. It also gave a TGI (K-562 leukemia) of 5.35 µM, a GI50 (KM12 colon) of 1.94 µM and a TGI (KM12 colon) of 55.4 µM. It also gave a GI50 (LOX IMVI melanoma) of 1.91 µM, a TGI (LOX IMVI melanoma) of 21.1 µM and a GI50 (M14 melanoma) of 1.39 µM. The TGI (M14 melanoma) was 3.16 µM, the GI50 (MALME-3M melanoma) was 1.65 µM and the TGI (MALME-3M melanoma) was 6.03 µM. The GI50 (MCF7 breast) was 2.16 µM, the TGI (MCF7 breast) was 8.52 µM and the GI50 (MDA-MB-435 melanoma) was 0.28 µM. For the same molecule, the TGI (MDA-MB-435 melanoma) was 1.06 µM, the GI50 (MDA-MB-468 breast) was 0.142 µM and the TGI (MDA-MB-468 breast) was 0.822 µM. It also gave a GI50 (MOLT-4 leukemia) of 0.301 µM, a TGI (MOLT-4 leukemia) of 1.22 µM and a GI50 (NCI-H226 lung) of 4.29 µM. The TGI (NCI-H226 lung) was 26.7 µM, the GI50 (NCI-H23 lung) was 1.75 µM and the TGI (NCI-H23 lung) was 4.13 µM. The GI50 (NCI-H322M lung) was 5.48 µM, the TGI (NCI-H322M lung) was 29.1 µM and the GI50 (NCI-H460 NSCLC) was 2.28 µM. The TGI (NCI-H460 NSCLC) was 5.15 µM, the GI50 (NCI-H522 lung) was 0.628 µM and the TGI (NCI-H522 lung) was 2.17 µM. For the same molecule, the GI50 (NCI/ADR-RES ovarian) was 1.43 µM, the TGI (NCI/ADR-RES ovarian) was 3.12 µM and the GI50 (OVCAR-3 ovarian) was 1.41 µM. For the same molecule, the TGI (OVCAR-3 ovarian) was 3.1 µM, the GI50 (OVCAR-4 ovarian) was 2.09 µM and the TGI (OVCAR-4 ovarian) was 9.56 µM. It also gave a GI50 (OVCAR-8 ovarian) of 2.39 µM, a TGI (OVCAR-8 ovarian) of 5.17 µM and a GI50 (PC-3 prostate) of 3.1 µM. It also gave a TGI (PC-3 prostate) of 16.1 µM, a GI50 (RPMI-8226 leukemia) of 1.51 µM and a TGI (RPMI-8226 leukemia) of 2.89 µM. For the same molecule, the GI50 (RXF 393 renal) was 1.33 µM, the TGI (RXF 393 renal) was 3.48 µM and the GI50 (SF-268 CNS) was 3.27 µM. The TGI (SF-268 CNS) was 15 µM, the GI50 (SF-295 CNS) was 2.17 µM and the TGI (SF-295 CNS) was 5.44 µM. The GI50 (SF-539 CNS) was 1.79 µM, the TGI (SF-539 CNS) was 4.12 µM and the GI50 (SK-MEL-2 melanoma) was 0.48 µM. The TGI (SK-MEL-2 melanoma) was 1.9 µM, the GI50 (SK-MEL-28 melanoma) was 2.59 µM and the TGI (SK-MEL-28 melanoma) was 7.79 µM. It also gave a GI50 (SK-MEL-5 melanoma) of 1.36 µM, a TGI (SK-MEL-5 melanoma) of 3.4 µM and a GI50 (SK-OV-3 ovarian) of 2.42 µM. It also gave a TGI (SK-OV-3 ovarian) of 15.1 µM, a GI50 (SN12C renal) of 3.69 µM and a TGI (SN12C renal) of 72.6 µM. The GI50 (SNB-19 CNS) was 2.92 µM, the TGI (SNB-19 CNS) was 20.5 µM and the GI50 (SNB-75 CNS) was 1.25 µM. The TGI (SNB-75 CNS) was 5.15 µM, the GI50 (SW-620 colon) was 1.15 µM and the TGI (SW-620 colon) was 4.26 µM. The GI50 (TK-10 renal) was 2.25 µM, the TGI (TK-10 renal) was 9.09 µM and the GI50 (U251 glioblastoma) was 3.48 µM. It also gave a TGI (U251 glioblastoma) of 14.4 µM, a GI50 (UACC-257 melanoma) of 3.31 µM and a TGI (UACC-257 melanoma) of 19.7 µM. It also gave a GI50 (UACC-62 melanoma) of 1.52 µM and a TGI (UACC-62 melanoma) of 7.92 µM.
